Patent US20210228695A1 (REALTA HOLDINGS, LLC, priority 2018, published 2021)
Like-named read-outs stand apart in the source and are kept apart here. Ends that are not written are not given here.

How the values were obtained:
[1] = human, in vivo
Description: A patient with chronic active Epstein-Barr virus disease and hemophagocytic lymphohistiocytosis presented with ceftriaxone-induced hemolytic anemia. The patient had been evaluated in the emergency department for fever and possible sepsis after recently receiving chemotherapy. In the emergency department they received a dose of ceftriaxone (50 mg/kg). The patient had received ceftriaxone on three previous occasions with no history of adverse reaction. Within an hour they developed back pain, tachycardia and tachypnea. Over the next three hours they developed worsening distress, failed continuous positive airway pressure and required endotracheal intubation with mechanical ventilation. They also experienced hypotension requiring fluid resuscitation and a continuous epinephrine infusion.
Four hours later, their hemoglobin had decreased to 6.1 g/dL, followed by a point-of-care hemoglobin of 5.1 g/dL. They received four packed red blood cell transfusions (each 10 mL/kg) within 72 hours, after which, their hemoglobin stabilized at their initial baseline (FIG. 1A). […] There were spherocytes on their peripheral blood smear as well as red blood cell aggregation. On admission, one day later, and five days later, their total bilirubin level was 1.5 mg/dL, 10.7 mg/dL, and 23.1 mg/dL respectively, with 90% being conjugated. […]

[2] = patients frequently exposed to ceftriaxone; cited from earlier work
[3] = PIC1 administered to a patient with ceftriaxone-induced hemolysis (Example 2); format: in vivo, human
Description: A patient is tested for possible hemolysis as a result of treatment with ceftriaxone. The patient has an erythrocyte hemoglobin level of 6.5 g/dL, a total bilirubin level of 12.4 mg/dL, and an LDH of 16,500. The patient receives packed red blood cell transfusion, and ceftriaxone is discontinued.
Four hours later, the patient has an erythrocyte hemoglobin level of 7.9 g/dL, a total bilirubin level of 8.4 mg/dL, and an LDH of 10,500, all of which show improvement. […] The bilirubin and LDH levels continue to improve. The patient receives additional packed red blood cell transfusions as needed.

[4] = system: classical complement pathway; conditions: 0.75 mM PIC1 and ceftriaxone together
Description: The CHUHE assay utilizes human serum and human erythrocytes to measure complement-mediated hemolysis for the specific serum and specific erythrocytes that are co-incubated.
The patient's blood and sera were provided as discarded de-identified samples from residual specimens in the Blood Bank. […] Standard veronal complement buffers were utilized.
The modified CHUHE assay was performed as follows. The patient's sera (0.1 ml) was combined with ceftriaxone (10 μg/ml final concentration) in an ice-water bath for 30 minutes to enhance immune complex formation. This solution was then warmed to 24° C. […] Samples were incubated at 37° C. for one hour, with hemolysis stopped by the addition of 2.0 ml of GVBS-EDTA buffer (veronal-buffered saline with 0.1% gelatin and 10 mM EDTA). Erythrocytes were sedimented, and free hemoglobin was measured by spectrophotometry at 412 nm. Two independent experiments (n=2) were performed. Without wishing to be bound by theory, adaptation of the CHUHE hemolytic assay by adding exogenous ceftriaxone to the patient's serum and erythrocytes allowed for evaluation as to whether the hemolysis was ceftriaxone-initiated.

Row | Molecule | total bilirubin level [1] | patients developing anti-ceftriaxone antibodies [2] | clinical outcome ([3]; 150 mg/kg PIC1, then daily dose for three days, with transfusions as needed) | total bilirubin level ([3]; four hours after 150 mg/kg PIC1, 12.4 mg/dL before) | erythrocyte hemoglobin level ([3]; four hours after 150 mg/kg PIC1, 6.5 g/dL before) | LDH ([3]; four hours after 150 mg/kg PIC1, 16,500 before) | hemolysis relative to the no ceftriaxone control [4]
1 | CO/N=C(\C(=O)N[C@@H]1C(=O)N2C(C(=O)O)=C(CSc3nc(=O)c(=O)[nH]n3C)CS[C@H]12)c1csc(N)n1 [ceftriaxone, reference compound] | 23.1 mg/dL | 12.5% | – | – | – | – | –
2 | IALILEPICCQERAA-dPEG24 (cysteine pairing not given here) [PIC1] | – | – | completely recovered from the hemolysis | 8.4 mg/dL | 7.9 g/dL | 10,500 | returned hemolysis to the level of the no ceftriaxone control
